Results on eight molecules are retold here after ChEMBL document CHEMBL5465560, “Selectivity Literature for EUbOPEN Chemogenomic Library” (2024).

Assay [1] concerns the target Ribosomal protein S6 kinase alpha-5 (Homo sapiens) (UniProt O75582). The assay can be described thus: Selectivity interaction (KinomeScan (DiscoverX)) EUB0000607a RPS6KA5. The following applies: at 10 µM.
Assay [2] has as its target T1, MAP/microtubule affinity-regulating kinase 4 (Homo sapiens) (UniProt Q96L34).
T1 sequence (whole entry): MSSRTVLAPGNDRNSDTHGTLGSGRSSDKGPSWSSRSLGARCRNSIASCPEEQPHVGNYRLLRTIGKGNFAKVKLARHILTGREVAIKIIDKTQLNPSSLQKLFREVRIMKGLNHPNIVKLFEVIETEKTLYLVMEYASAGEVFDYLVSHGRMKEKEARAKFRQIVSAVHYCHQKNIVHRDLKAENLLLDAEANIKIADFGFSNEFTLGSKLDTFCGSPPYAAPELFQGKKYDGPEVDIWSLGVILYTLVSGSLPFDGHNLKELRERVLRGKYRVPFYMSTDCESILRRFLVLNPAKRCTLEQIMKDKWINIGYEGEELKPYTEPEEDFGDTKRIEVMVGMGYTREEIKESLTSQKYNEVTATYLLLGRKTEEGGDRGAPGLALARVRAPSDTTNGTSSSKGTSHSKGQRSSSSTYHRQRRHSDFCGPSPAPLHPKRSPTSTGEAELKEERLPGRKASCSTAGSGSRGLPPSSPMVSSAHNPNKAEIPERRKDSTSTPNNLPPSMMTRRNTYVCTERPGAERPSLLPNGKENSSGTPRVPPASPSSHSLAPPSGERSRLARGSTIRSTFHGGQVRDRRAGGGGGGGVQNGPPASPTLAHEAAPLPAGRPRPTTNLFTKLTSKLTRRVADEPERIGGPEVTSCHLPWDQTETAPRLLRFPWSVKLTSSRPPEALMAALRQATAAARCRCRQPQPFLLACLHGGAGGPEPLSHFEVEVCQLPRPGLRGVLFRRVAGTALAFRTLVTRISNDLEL
The assay can be described thus: Selectivity interaction (KinomeScan (DiscoverX)) EUB0000666a MARK4. The note with it: at 10 µM.

The target of assay [3] is T2, Serine/threonine-protein kinase Nek9 (Homo sapiens) (UniProt Q8TD19).
T2 sequence (whole entry): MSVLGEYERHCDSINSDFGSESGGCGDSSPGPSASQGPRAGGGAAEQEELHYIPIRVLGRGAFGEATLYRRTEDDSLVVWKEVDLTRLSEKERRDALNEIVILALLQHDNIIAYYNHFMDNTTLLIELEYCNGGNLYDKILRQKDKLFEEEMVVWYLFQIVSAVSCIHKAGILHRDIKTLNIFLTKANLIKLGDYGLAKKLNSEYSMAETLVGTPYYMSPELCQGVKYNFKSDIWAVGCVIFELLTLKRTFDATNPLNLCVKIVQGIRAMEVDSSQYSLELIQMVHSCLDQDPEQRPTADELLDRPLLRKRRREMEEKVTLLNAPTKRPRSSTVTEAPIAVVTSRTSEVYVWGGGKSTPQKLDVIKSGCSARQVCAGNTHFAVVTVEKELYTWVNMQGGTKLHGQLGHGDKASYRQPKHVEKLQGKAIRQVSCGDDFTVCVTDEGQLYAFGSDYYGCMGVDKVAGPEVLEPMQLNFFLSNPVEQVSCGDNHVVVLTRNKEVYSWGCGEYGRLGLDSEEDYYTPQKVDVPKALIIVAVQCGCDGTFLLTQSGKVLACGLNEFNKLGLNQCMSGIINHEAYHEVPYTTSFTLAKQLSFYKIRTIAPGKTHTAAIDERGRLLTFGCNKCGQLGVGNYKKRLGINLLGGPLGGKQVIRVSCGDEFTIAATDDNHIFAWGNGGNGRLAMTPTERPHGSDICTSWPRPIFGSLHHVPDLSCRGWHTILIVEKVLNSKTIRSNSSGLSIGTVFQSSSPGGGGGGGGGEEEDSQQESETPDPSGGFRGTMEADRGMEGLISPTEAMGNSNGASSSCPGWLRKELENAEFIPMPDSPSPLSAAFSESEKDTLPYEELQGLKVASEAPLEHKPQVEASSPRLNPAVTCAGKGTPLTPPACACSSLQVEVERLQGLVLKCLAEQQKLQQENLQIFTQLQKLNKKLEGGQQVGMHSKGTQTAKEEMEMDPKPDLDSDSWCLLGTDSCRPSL
The assay can be described thus: Selectivity interaction (ActivX KiNativ screen (ex vivo kinase selectivity in human PBMCs)) EUB0001619a NEK9. It counts as cell-based. The note with it: PBMC, at 1 µM.

In assay [4] the target is MAP/microtubule affinity-regulating kinase 3 (Homo sapiens) (UniProt P27448). The assay can be described thus: Selectivity interaction (ActivX KiNativ screen (kinase selectivity in THP-1 cell lysates)) EUB0000639a MARK3. The following applies: lysate, at 5 µM. The assay is classed as subcellular.
Sequence of MAP/microtubule affinity-regulating kinase 3 (Homo sapiens) (P27448 whole entry, looked up): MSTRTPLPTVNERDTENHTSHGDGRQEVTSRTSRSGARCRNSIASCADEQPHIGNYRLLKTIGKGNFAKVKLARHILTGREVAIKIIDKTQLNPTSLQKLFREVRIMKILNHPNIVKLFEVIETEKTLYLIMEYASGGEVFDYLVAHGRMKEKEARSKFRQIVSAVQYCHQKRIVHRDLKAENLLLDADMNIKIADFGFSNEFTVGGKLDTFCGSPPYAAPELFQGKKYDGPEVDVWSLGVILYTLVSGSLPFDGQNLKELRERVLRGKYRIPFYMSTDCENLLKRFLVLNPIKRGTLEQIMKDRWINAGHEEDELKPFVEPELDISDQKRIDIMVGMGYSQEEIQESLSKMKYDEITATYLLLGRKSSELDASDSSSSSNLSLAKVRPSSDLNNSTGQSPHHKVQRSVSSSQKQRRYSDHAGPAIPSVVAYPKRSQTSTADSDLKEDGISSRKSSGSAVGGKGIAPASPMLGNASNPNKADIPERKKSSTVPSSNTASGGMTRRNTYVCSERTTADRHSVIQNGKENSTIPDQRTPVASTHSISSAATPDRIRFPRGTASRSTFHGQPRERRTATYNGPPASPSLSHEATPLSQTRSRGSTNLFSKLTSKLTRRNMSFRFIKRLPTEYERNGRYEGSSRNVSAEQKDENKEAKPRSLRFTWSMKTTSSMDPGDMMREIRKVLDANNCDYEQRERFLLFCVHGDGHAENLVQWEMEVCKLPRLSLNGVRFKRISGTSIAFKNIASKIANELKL
Assay [5] addresses RAC-alpha serine/threonine-protein kinase (Homo sapiens, UniProt P31749). The following applies: at 10 µM.
Assay [6] deals with Fibroblast growth factor receptor 1 (Homo sapiens, UniProt P11362). The assay can be described thus: Selectivity interaction (KinomeScan (DiscoverX)) EUB0000695a FGFR1. The following applies: at 100 nM.
Sequence of Fibroblast growth factor receptor 1 (P11362 22-822 limits assumed): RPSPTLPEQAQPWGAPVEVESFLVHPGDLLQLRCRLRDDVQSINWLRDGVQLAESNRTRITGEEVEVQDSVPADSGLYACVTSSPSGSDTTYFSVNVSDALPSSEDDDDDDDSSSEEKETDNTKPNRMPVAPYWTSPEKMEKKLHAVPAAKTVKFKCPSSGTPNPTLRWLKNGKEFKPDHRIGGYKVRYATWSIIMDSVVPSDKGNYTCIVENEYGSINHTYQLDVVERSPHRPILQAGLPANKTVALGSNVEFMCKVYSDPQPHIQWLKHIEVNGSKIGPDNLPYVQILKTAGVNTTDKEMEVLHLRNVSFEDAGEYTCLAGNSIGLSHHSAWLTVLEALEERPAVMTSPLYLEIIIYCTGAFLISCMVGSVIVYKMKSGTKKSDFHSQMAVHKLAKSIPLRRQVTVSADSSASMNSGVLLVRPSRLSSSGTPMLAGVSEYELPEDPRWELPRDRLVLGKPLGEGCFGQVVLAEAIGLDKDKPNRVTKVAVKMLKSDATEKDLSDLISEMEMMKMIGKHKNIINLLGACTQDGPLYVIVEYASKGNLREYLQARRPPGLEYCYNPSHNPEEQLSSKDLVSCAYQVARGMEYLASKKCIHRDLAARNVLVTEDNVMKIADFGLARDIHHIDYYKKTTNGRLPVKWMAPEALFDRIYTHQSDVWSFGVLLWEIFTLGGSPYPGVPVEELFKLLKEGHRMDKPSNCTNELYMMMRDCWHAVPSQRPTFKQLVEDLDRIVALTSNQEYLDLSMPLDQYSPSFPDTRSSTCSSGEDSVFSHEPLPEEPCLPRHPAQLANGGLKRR
Assay [7] deals with Activin receptor type-2A (Homo sapiens) (UniProt P27037). The assay can be described thus: Selectivity interaction (KinomeScan (DiscoverX)) EUB0000092b ACVR2A. The note with it: at 10 µM.
Sequence of Activin receptor type-2A (Homo sapiens) (P27037 whole entry): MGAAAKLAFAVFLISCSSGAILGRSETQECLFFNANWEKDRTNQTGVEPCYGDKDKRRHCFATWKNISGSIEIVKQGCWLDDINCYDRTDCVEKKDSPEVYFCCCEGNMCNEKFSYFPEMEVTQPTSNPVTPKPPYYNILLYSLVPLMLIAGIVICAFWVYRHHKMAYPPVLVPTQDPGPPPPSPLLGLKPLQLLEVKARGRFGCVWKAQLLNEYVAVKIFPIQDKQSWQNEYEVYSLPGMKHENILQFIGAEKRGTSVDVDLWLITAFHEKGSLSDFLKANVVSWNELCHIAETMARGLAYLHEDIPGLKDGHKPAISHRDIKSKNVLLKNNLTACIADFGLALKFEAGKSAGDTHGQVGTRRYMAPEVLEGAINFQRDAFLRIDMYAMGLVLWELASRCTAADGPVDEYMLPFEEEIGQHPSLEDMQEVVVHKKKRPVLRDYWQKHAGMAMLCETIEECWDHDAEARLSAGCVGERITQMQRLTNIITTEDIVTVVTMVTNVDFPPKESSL
Assay [8] has as its target T3, Receptor-interacting serine/threonine-protein kinase 4 (Homo sapiens) (UniProt P57078).
T3 sequence (whole entry): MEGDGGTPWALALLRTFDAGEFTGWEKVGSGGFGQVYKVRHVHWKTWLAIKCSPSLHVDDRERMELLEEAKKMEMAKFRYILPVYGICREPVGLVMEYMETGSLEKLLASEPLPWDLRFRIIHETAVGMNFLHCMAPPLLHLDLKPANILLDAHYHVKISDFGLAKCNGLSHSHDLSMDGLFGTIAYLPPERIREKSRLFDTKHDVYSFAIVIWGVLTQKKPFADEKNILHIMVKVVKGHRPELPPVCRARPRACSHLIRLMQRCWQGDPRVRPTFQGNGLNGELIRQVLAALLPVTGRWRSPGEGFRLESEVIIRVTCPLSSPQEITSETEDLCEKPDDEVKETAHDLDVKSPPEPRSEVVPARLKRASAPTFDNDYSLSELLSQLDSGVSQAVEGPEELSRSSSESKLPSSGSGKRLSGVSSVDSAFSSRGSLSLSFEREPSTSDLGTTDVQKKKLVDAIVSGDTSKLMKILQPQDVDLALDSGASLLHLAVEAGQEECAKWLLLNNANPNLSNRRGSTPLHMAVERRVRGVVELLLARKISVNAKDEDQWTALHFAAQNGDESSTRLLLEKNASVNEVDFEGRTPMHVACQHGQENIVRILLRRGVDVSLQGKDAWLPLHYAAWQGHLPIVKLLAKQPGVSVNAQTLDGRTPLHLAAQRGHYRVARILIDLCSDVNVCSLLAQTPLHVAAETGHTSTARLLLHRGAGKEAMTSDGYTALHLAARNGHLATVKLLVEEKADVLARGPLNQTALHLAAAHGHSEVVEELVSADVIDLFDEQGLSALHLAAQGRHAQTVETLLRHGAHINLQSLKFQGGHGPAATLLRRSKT
The assay can be described thus: Selectivity interaction (KinomeScan (DiscoverX)) EUB0000595a RIPK4. The note with it: at 10 µM.

Sequence of RAC-alpha serine/threonine-protein kinase (P31749 whole entry): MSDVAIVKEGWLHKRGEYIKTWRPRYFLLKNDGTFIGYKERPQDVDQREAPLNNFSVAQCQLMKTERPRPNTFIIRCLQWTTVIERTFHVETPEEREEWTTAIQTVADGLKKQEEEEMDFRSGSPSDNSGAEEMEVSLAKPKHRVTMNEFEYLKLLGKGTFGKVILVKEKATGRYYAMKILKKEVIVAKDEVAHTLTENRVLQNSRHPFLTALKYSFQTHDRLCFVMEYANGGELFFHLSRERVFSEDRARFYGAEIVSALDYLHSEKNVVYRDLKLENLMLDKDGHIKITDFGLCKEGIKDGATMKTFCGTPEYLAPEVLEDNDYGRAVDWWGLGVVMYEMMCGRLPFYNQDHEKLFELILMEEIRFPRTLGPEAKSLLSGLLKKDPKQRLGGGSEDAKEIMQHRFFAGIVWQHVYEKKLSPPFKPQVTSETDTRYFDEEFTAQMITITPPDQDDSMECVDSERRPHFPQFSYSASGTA
Sequence of Ribosomal protein S6 kinase alpha-5 (Homo sapiens) (O75582 whole entry, looked up): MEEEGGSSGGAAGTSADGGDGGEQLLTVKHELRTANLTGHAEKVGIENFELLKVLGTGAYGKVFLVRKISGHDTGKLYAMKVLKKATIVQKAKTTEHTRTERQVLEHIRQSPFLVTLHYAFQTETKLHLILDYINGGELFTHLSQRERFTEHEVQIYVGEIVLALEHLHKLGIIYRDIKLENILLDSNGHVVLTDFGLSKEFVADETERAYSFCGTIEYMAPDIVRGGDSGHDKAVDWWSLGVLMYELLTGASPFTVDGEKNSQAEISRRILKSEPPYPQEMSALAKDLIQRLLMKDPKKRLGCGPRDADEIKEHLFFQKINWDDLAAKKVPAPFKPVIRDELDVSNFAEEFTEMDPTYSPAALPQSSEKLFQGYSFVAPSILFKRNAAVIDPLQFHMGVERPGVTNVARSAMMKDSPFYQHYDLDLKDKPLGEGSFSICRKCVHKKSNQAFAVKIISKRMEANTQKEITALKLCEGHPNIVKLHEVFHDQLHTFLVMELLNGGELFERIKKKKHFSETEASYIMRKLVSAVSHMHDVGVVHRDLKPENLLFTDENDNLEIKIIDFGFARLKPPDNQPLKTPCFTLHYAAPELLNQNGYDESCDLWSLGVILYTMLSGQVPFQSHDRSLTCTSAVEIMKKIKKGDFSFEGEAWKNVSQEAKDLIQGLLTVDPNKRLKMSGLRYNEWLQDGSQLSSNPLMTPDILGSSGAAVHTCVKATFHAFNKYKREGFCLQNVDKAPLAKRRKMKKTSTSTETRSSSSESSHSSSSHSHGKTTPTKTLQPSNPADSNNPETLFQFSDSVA

On to `CNC(=O)Nc1ccc(-c2nc(N3CC4CCC(C3)O4)c3cnn(C4CCC5(CC4)OCCO5)c3n2)cc1`, for which the % of control in assay [1] worked out at 86%.

For `O=C(NOC[C@H](O)CO)c1ccc(F)c(F)c1Nc1ccc(I)cc1F`, the % of control in assay [2] amounted to 100%.

Regarding `N#Cc1cccc(-c2c[nH]c3ncnc(N4CCOCC4)c23)c1`, in assay [3], the % of inhibition was 1%.

For the molecule `CC[C@@H]1[C@H](F)C(=O)N[C@@H]1COc1nccc2cc(C(N)=O)c(OC)cc12` [ZIMLOVISERTIB], in assay [4], the % of inhibition was found to be 36.9%.

With `CCN(CC)CCCCNc1ncc2cc(-c3cc(OC)cc(OC)c3)c(NC(=O)NC(C)(C)C)nc2n1`, the % of control in assay [5] came out at 100%.

`Cc1cc(F)c(C(=O)Nc2cccc(-c3nncn3C(C)C)n2)cc1-n1cnc(C2CC2)c1` had a % of control in assay [6] of 100%.

In the case of `CCC(=O)N1CCN(c2ccc(-n3c(=O)ccc4cnc5ccc(-c6cnc7ccccc7c6)cc5c43)cc2C(F)(F)F)CC1`, in assay [7], the % of control worked out at 47%.

For the molecule `COCC(=O)NC/C=C/c1ccc2ncnc(Nc3ccc(Oc4ccc(C)nc4)c(C)c3)c2c1` [CP-724714], in assay [8], the % of control was found to be 100%.
